From ChEMBL document CHEMBL5335783, “Inhibitory activity of catecholic phosphonic and phosphinic acids against Helicobacter pylori ureolysis” (Eur J Med Chem, 2023)
Active and inactive are the calls of the source. No cut-off for these calls is given here.

What was measured:
[1] = Stability of compound in methanol assessed as rate of hydrolysis measured after 3 days by NMR analysis; assay type: physicochemical; details: time 3 day, read-out: Activity
Sporosarcina pasteurii [2] = assay: Inhibition of Sporosarcina pasteurii CCM 2056 native urease using urea as substrate in presence of DTT measured for 1.5 hrs by colorimetric method
[3] = Inhibition of -ureolysis in live Helicobacter pylori Tx30a (ATCC 51932) in presence of urea by absorbance based analysis; assay type: functional
[4] = Inhibition of Sporosarcina pasteurii CCM 2056 native urease using urea as substrate preincubated for 1 hr followed by substrate addition and measured for 1.5 hrs by colorimetric method
[5] = Inhibition of Sporosarcina pasteurii CCM 2056 native urease using urea as substrate measured for 1.5 hrs by colorimetric method
[6] = Cytotoxicity against mouse Balb/3T3-L1 cells assessed as reduction in cell proliferation at 31.4 uM incubated for 72 hrs by SRB assay relative to control; assay type: toxicity, cell-based; details: read-out: Activity
[7] = Cytotoxicity against HEK293 cells assessed as reduction in cell proliferation at 0.1 uM incubated for 72 hrs by SRB assay relative to control; assay type: toxicity, cell-based; details: human, read-out: Activity
HEK293 [8] = assay: Cytotoxicity against HEK293 cells assessed as reduction in cell proliferation at 10 uM incubated for 72 hrs by SRB assay relative to control; assay type: toxicity, cell-based; parameters: scale not given: the % may be the effect or the level left; details: human, hek293, 72 h
[9] = Cytotoxicity against mouse Balb/3T3-L1 cells assessed as reduction in cell proliferation at 100 uM incubated for 72 hrs by SRB assay relative to control; assay type: toxicity, cell-based; details: read-out: Activity
[10] = Cytotoxicity against mouse Balb/3T3-L1 cells assessed as reduction in cell proliferation at 0.1 uM incubated for 72 hrs by SRB assay relative to control; assay type: toxicity, cell-based; parameters: scale not given: the % may be the effect or the level left; details: balb/3t3-l1, 72 h
[11] = Cytotoxicity against HEK293 cells assessed as reduction in cell proliferation at 100 uM incubated for 72 hrs by SRB assay relative to control; assay type: toxicity, cell-based; details: human, read-out: Activity
[12] = Cytotoxicity against HEK293 cells assessed as reduction in cell proliferation at 3.14 uM incubated for 72 hrs by SRB assay relative to control; assay type: toxicity, cell-based; details: human, read-out: Activity
[13] = Cytotoxicity against HEK293 cells assessed as reduction in cell proliferation at 31.4 uM incubated for 72 hrs by SRB assay relative to control; assay type: toxicity, cell-based; details: human, read-out: Activity
[14] = Cytotoxicity against HEK293 cells assessed as reduction in cell proliferation at 1 uM incubated for 72 hrs by SRB assay relative to control; assay type: toxicity, cell-based; details: human, read-out: Activity
[15] = Cytotoxicity against mouse Balb/3T3-L1 cells assessed as reduction in cell proliferation at 10 uM incubated for 72 hrs by SRB assay relative to control; assay type: toxicity, cell-based; details: read-out: Activity
[16] = Cytotoxicity against mouse Balb/3T3-L1 cells assessed as reduction in cell proliferation at 1 uM incubated for 72 hrs by SRB assay relative to control; assay type: toxicity, cell-based; details: read-out: Activity
HEK293 [17] = assay: Cytotoxicity against HEK293 cells assessed as reduction in cell proliferation at 0.31 uM incubated for 72 hrs by SRB assay relative to control; assay type: toxicity, cell-based; parameters: scale not given: the % may be the effect or the level left; details: human, hek293, 72 h
[18] = Cytotoxicity against mouse Balb/3T3-L1 cells assessed as reduction in cell proliferation at 0.31 uM incubated for 72 hrs by SRB assay relative to control; assay type: toxicity, cell-based; details: read-out: Activity
[19] = Cytotoxicity against mouse Balb/3T3-L1 cells assessed as reduction in cell proliferation at 3.14 uM incubated for 72 hrs by SRB assay relative to control; assay type: toxicity, cell-based; parameters: scale not given: the % may be the effect or the level left; details: balb/3t3-l1, 72 h
Sporosarcina pasteurii [20] = assay: Inhibition of Sporosarcina pasteurii CCM 2056 native urease using urea as substrate by colorimetric method; details: TDE = time-dependent effect
Sporosarcina pasteurii [21] = assay: Competitive inhibition of Sporosarcina pasteurii CCM 2056 native urease using urea as substrate in presence of DTT measured for 1.5 hrs by colorimetric method

| inhibition (Sporosarcina pasteurii [2]) | IC50 [3] [µM] | Ki [4] [µM] | Ki [5] [µM] | Structure (SMILES) | inhibition at 72 h, 31.4 µM [6] [%] | inhibition at 72 h, 0.1 µM [7] [%] | Activity (HEK293 [8]) [%] | inhibition at 72 h, 100 µM [9] [%] | Activity [10] [%] | inhibition at 72 h, 100 µM [11] [%] | inhibition at 72 h, 3.14 µM [12] [%] | inhibition at 72 h, 31.4 µM [13] [%] | inhibition at 72 h, 1 µM [14] [%] | inhibition at 72 h, 10 µM [15] [%] | inhibition at 72 h, 1 µM [16] [%] | Activity (HEK293 [17]) [%] | inhibition at 72 h, 0.31 µM [18] [%] | Activity [19] [%] | other results |
| --- | --- | --- | --- | --- | --- | --- | --- | --- | --- | --- | --- | --- | --- | --- | --- | --- | --- | --- | --- |
| Active | 412 | 228 | 295 | COC(=O)CCP(=O)(O)CC(C(=O)OC)c1ccc(O)c(O)c1 (stereo not given) |  |  |  |  |  |  |  |  |  |  |  |  |  |  | degraded at 72 h [1]: < 5% |
|  | 156 | 3.3 |  | CC(=O)NO [ACETOHYDROXAMIC ACID] |  |  |  |  |  |  |  |  |  |  |  |  |  |  |  |
| inactive | 0.75 | 2.36 | 400 | O=C(O)C(CP(=O)(O)O)c1ccc(O)c(O)c1 (racemic) | 24.9 | 1.4 | -3 | 34.9 | 6.7 | 7.8 | -0.2 | -3 | -0.8 | 22.1 | 18.6 | -1.6 | 15.6 | 20.1 | inhibition (Sporosarcina pasteurii [20]): Tde |
| Active | 31.4 | 78 | 107 | COC(=O)C(CP(=O)(O)O)c1ccc(O)c(O)c1 (racemic) |  |  |  |  |  |  |  |  |  |  |  |  |  |  | degraded at 72 h [1]: < 5% |

Further lines, the compound ahead of its results:

| Structure (SMILES) | inhibition (Sporosarcina pasteurii [2]) | IC50 [3] [µM] | Ki [4] [µM] | Ki [5] [µM] | inhibition at 72 h, 31.4 µM [6] [%] | inhibition at 72 h, 0.1 µM [7] [%] | Activity (HEK293 [8]) [%] | inhibition at 72 h, 100 µM [9] [%] | Activity [10] [%] | inhibition at 72 h, 100 µM [11] [%] | inhibition at 72 h, 3.14 µM [12] [%] | inhibition at 72 h, 31.4 µM [13] [%] | inhibition at 72 h, 1 µM [14] [%] | inhibition at 72 h, 10 µM [15] [%] | inhibition at 72 h, 1 µM [16] [%] | Activity (HEK293 [17]) [%] | inhibition at 72 h, 0.31 µM [18] [%] | Activity [19] [%] | other results |
| --- | --- | --- | --- | --- | --- | --- | --- | --- | --- | --- | --- | --- | --- | --- | --- | --- | --- | --- | --- |
| O=P(O)(O)CCc1ccc(O)c(O)c1 | Active | 26.6 | 9.1 | 17.7 | 18.3 | 2.2 | 8.4 | 17.8 | 0.4 | 15.7 | 0.1 | 15.6 | -0.9 | 12.7 | 15 | -3.4 | 5.9 | 10.6 |  |
| O=C(O)C(CP(=O)(O)CC(C(=O)O)c1ccc(O)c(O)c1)c1ccc(O)c(O)c1 (mixture of isomers) | inactive | 13.1 | 6.8 | 16 |  |  |  |  |  |  |  |  |  |  |  |  |  |  |  |
| O=C(O)C(CP(=O)(O)O)c1cc(O)c(O)cc1Br (racemic) | Active | 50.3 | 34.8 | 41.9 |  |  |  |  |  |  |  |  |  |  |  |  |  |  | inhibition (Sporosarcina pasteurii [21]): Active |
| COC(=O)C(CP(=O)(O)CC(C(=O)OC)c1ccc(O)c(O)c1)c1ccc(O)c(O)c1 (mixture of isomers) | inactive | 106 | 7.55 | 223 |  |  |  |  |  |  |  |  |  |  |  |  |  |  |  |
| O=C(O)CCP(=O)(O)CC(C(=O)O)c1ccc(O)c(O)c1 (racemic) | inactive | 9.28 | 6.13 | 298 | 25.8 | 13.5 | 16.3 | 33.2 | 8 | 7.7 | 10.1 | 10.4 | 8.1 | 17.4 | 13.4 | 8.5 | 4.9 | 17.5 |  |
| O=C(O)C(C[PH](=O)O)c1ccc(O)c(O)c1 (racemic) | inactive | 10.5 | 58.8 | 79.3 |  |  |  |  |  |  |  |  |  |  |  |  |  |  | inhibition (Sporosarcina pasteurii [20]): Tde |
